These results are taken from US11554171B2, “Compounds and methods for the targeted degradation of bromodomain-containing proteins” (Arvinas Operations, Inc., priority 2015, dated 2023).

For the assay, the system named is c-myc in 22RV-1 cells. Nature of the assay: Human c-myc ELISA assay. The assay is classed as cell-based. To be noted: Homo sapiens; for Emax: 22Rv1, 18 h, read-out: Degradation of BRD4: Maximum inhibition (%) c-Myc ELISA in 22RV1 cells; for DC50: 22Rv1, read-out: Degradation of BRD4: DC50 (uM) c-Myc ELISA in 22RV1 cells. The essentials: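 c-myc levels measured by ELISA in RIPA lysates of 22RV-1 cells, calibrated with a 333-0 pg/ml standard curve. Lysates came from cells exposed for 18 h to an 8-point, 1:3 dose series starting at 300 nM or 1 μM final in 0.1% DMSO. Suppression potency given as DC50.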
For orientation: In an ELISA, binding on a coated surface is turned into a signal by an enzyme label.

The term DC50 denotes the concentration giving 50% degradation.

As for `Cc1ncsc1-c1ccc(CNC(=O)[C@@H]2C[C@@H](O)CN2C(=O)[C@H](C(C)C)N2Cc3ccccc3C2=O)c(OCCOCCOCCOCCNC(=O)C[C@@H]2N=C(c3ccc(Cl)cc3)c3c(sc(C)c3C)-n3c(C)nnc32)c1` [Example 1, (2S,4R)-N-{[2-(2-{2-[2-(2-{2-[(9S)-7-(4-chlorophenyl)-4,5,13-trimethyl-3-thia-1,8,11,12-tetraazatricyclo[8.3.0.0^2,^6]trideca-2(6),4,7,10,12-pentaen-9-yl]acetamido}ethoxy)ethoxy]ethoxy}ethoxy)-4-(4-methyl-1,3-thiazol-5-yl)phenyl]methyl}-4-hydroxy-1-[(2S)-3-methyl-2-(1-oxo-2,3-dihydro-1H-isoindol-2-yl)butanoyl]pyrrolidine-2-carboxamide], the Emax turned out to be 100% and the DC50 was in the range of 0.1 to 1 µM.

As to `Cc1sc2c(c1C)C(c1ccc(Cl)cc1)=N[C@@H](CC(=O)N[C@H]1C[C@H](OC3CCN(CC(=O)N[C@H](C(=O)N4C[C@H](O)C[C@H]4C(=O)N[C@@H](C)c4ccc(-c5scnc5CO)cc4)C(C)(C)C)CC3)C1)c1nnc(C)n1-2` [Example 346], the Emax turned out to be 90% and the DC50 was in the range of 0.01 to 0.1 µM.

As for `Cc1ncsc1-c1ccc([C@H](C)NC(=O)[C@@H]2C[C@@H](O)CN2C(=O)[C@@H](NC(=O)Cc2ccc(O[C@H]3C[C@H](NC(=O)C[C@@H]4N=C(c5ccc(Cl)cc5)c5c(sc(C)c5C)-n5c(C)nnc54)C3)cc2)C(C)(C)C)cc1` [Example 193, (2S,4R)-1-[(2S)-3,3-dimethyl-2-(2-{4-[(1,3trans)-3-{2-[(9S)-7-(4-chlorophenyl)-4,5,13-trimethyl-3-thia-1,8,11,12-tetraazatricyclo[8.3.0.0^2,^6]trideca-2(6),4,7,10,12-pentaen-9-yl]acetamido}cyclobutoxy]phenyl}acetamido)butanoyl]-4-hydroxy-N-[(1S)-1-[4-(4-methyl-1,3-thiazol-5-yl)phenyl]ethyl]pyrrolidine-2-carboxamide], the Emax was found to be 100% and the DC50 was under 0.01 µM.

Regarding `Cc1ncsc1-c1ccc(CNC(=O)[C@@H]2C[C@@H](O)CN2C(=O)[C@@H](NC(=O)COCCO[C@H]2C[C@H](NC(=O)C[C@@H]3N=C(c4ccc(Cl)cc4)c4c(sc(C)c4C)-n4c(C)nnc43)C2)C(C)(C)C)cc1` [Example 137], the Emax was found to be 86.9% and the DC50 fell in the range of 0.1 to 1 µM.

Consider `Cc1ncsc1-c1ccc([C@H](C)NC(=O)[C@@H]2C[C@@H](O)CN2C(=O)[C@@H](NC(=O)Cc2ccc(-c3cn(CCNC(=O)C[C@@H]4N=C(c5ccc(Cl)cc5)c5c(sc(C)c5C)-n5c(C)nnc54)cn3)cc2)C(C)(C)C)cc1` [Example 337], for which the Emax came to 96.4% and the DC50 was under 0.01 µM.

On to `Cc1ncsc1-c1ccc(CNC(=O)[C@@H]2C[C@@H](O)CN2C(=O)[C@@H](c2cc(OCCCCCNC(=O)C[C@@H]3N=C(c4ccc(Cl)cc4)c4c(sc(C)c4C)-n4c(C)nnc43)no2)C(C)C)cc1` [Example 121], for which the Emax turned out to be 98.5% and the 50% degradation concentration (DC50) is under 0.01 µM.

As to `Cc1ncsc1-c1ccc([C@H](C)NC(=O)[C@@H]2C[C@@H](O)CN2C(=O)[C@@H](NC(=O)Cc2cccc(C(=O)N3CCN(C(=O)C[C@@H]4N=C(c5ccc(Cl)cc5)c5c(sc(C)c5C)-n5c(C)nnc54)CC3)c2)C(C)(C)C)cc1` [Example 326], the Emax worked out at 92% and the DC50 fell in the range of 0.01 to 0.1 µM.

With `Cc1ncsc1-c1ccc([C@H](C)NC(=O)[C@@H]2C[C@@H](O)CN2C(=O)[C@@H](NC(=O)c2cc3cc(OCCNC(=O)C[C@@H]4N=C(c5ccc(Cl)cc5)c5c(sc(C)c5C)-n5c(C)nnc54)ccc3o2)C(C)(C)C)cc1` [Example 165, (2S,4R)-1-[(2S)-2-{[5-(2-{2-[(9S)-7-(4-chlorophenyl)-4,5,13-trimethyl-3-thia-1,8,11,12-tetraazatricyclo[8.3.0.0^2,^6]trideca-2(6),4,7,10,12-pentaen-9-yl]acetamido}ethoxy)-1-benzofuran-2-yl]formamido}-3,3-dimethylbutanoyl]-4-hydroxy-N-[(1S)-1-[4-(4-methyl-1,3-thiazol-5-yl)phenyl]ethyl]pyrrolidine-2-carboxamide], the Emax stood at 97% and the DC50 was under 0.01 µM.

In the case of `CNC[C@H](NC(=O)[C@@H]1C[C@@H](O)CN1C(=O)[C@@H](NC(=O)COCCCOCCNC(=O)C[C@@H]1N=C(c2ccc(Cl)cc2)c2c(sc(C)c2C)-n2c(C)nnc21)C(C)(C)C)c1ccc(-c2scnc2C)cc1` [Example 110], the Emax came out at 7.14% and the DC50 was over 1 µM.

Consider `Cc1noc(-c2ccc([C@H](C)NC(=O)[C@@H]3C[C@@H](O)CN3C(=O)[C@@H](NC(=O)Cc3ccc(O[C@H]4C[C@H](NC(=O)C[C@@H]5N=C(c6ccc(Cl)cc6)c6c(sc(C)c6C)-n6c(C)nnc65)C4)cc3)C(C)(C)C)cc2)n1` [Example 275], for which the Emax was 50.1% and the DC50 was in the range of 0.1 to 1 µM.

Take `Cc1ncsc1-c1ccc([C@H](C)NC(=O)[C@@H]2C[C@@H](O)CN2C(=O)[C@@H](NC(=O)COC[C@@H](O)CN2CCN(C(=O)C[C@@H]3N=C(c4ccc(Cl)cc4)c4c(sc(C)c4C)-n4c(C)nnc43)CC2)C(C)(C)C)cc1` [Example 329]: the Emax is under 5% and the DC50 is over 1 µM.

Consider `Cc1ncsc1-c1ccc(CNC(=O)C2C[C@@H](O)CN2C(=O)[C@@H](NC(=O)COCCCOCCOc2cccc(NC(=O)C[C@@H]3N=C(c4ccc(Cl)cc4)c4c(sc(C)c4C)-n4c(C)nnc43)c2)C(C)(C)C)cc1` (some centres unmarked) [Example 94], for which the Emax came to 98.5% and the 50% degradation concentration (DC50) was under 0.01 µM.

As to `Cc1ncsc1-c1ccc(CNC(=O)[C@@H]2C[C@@H](O)CN2C(=O)[C@@H](NC(=O)c2cccc(CCOCCNC(=O)C[C@@H]3N=C(c4ccc(Cl)cc4)c4c(sc(C)c4C)-n4c(C)nnc43)n2)C(C)(C)C)cc1` [Example 164], the Emax is 96% and the DC50 lay in the range of 0.01 to 0.1 µM.

For `Cc1ncsc1-c1ccc([C@H](C)NC(=O)[C@@H]2C[C@H](O)CN2C(=O)[C@@H](NC(=O)COCCCOCCNC(=O)C[C@@H]2N=C(c3ccc(Cl)cc3)c3c(sc(C)c3C)-n3c(C)nnc32)C(C)(C)C)cc1` [Example 71], the Emax turned out to be 11.2% and the DC50 was over 1 µM.

As for `Cc1ncsc1-c1ccc([C@H](C)NC(=O)[C@@H]2C[C@@H](O)CN2C(=O)[C@@H](NC(=O)CCc2cc(OCCNC(=O)C[C@@H]3N=C(c4ccc(Cl)cc4)c4c(sc(C)c4C)-n4c(C)nnc43)ccc2F)C(C)(C)C)cc1` [Example 142, (2S,4R)-1-[(2S)-2-{3-[5-(2-{2-[(9S)-7-(4-chlorophenyl)-4,5,13-trimethyl-3-thia-1,8,11,12-tetraazatricyclo[8.3.0.0^2,^6]trideca-2(6),4,7,10,12-pentaen-9-yl]acetamido}ethoxy)-2-fluorophenyl]propanamido}-3,3-dimethylbutanoyl]-4-hydroxy-N-[(1S)-1-[4-(4-methyl-1,3-thiazol-5-yl)phenyl]ethyl]pyrrolidine-2-carboxamide], the Emax was determined as 98% and the half-maximal degradation concentration (DC50) is under 0.01 µM.

Regarding `Cc1ncsc1-c1ccc([C@H](C)NC(=O)[C@@H]2C[C@@H](O)CN2C(=O)[C@@H](NC(=O)CCc2ccc(O[C@H]3C[C@@H](NC(=O)C[C@@H]4N=C(c5ccc(Cl)cc5)c5c(sc(C)c5C)-n5c(C)nnc54)C3)nc2)C(C)(C)C)cc1` [Example 171], the Emax is 97% and the DC50 was under 0.01 µM.
